# According to patent publication US20180312886A1, “MICROBIAL PRODUCTION OF CHEMICAL PRODUCTS AND RELATED COMPOSITIONS, METHODS AND SYSTEMS” (CARGILL INCORPORATED, priority 2014, published 2018):
# Columns and labels:
# [1] = tested on: fatty acid synthase system; format: cell-based, E. coli
# [2] = molecular target: KASI ketoacyl-ACP synthase (e.g., fabB in E. coli) (Escherichia coli, UniProt P0A953); conditions: KX3_0001, fed-batch medium, 24 h
# Sequence of KASI ketoacyl-ACP synthase (e.g., fabB in E. coli) (P0A953 whole entry): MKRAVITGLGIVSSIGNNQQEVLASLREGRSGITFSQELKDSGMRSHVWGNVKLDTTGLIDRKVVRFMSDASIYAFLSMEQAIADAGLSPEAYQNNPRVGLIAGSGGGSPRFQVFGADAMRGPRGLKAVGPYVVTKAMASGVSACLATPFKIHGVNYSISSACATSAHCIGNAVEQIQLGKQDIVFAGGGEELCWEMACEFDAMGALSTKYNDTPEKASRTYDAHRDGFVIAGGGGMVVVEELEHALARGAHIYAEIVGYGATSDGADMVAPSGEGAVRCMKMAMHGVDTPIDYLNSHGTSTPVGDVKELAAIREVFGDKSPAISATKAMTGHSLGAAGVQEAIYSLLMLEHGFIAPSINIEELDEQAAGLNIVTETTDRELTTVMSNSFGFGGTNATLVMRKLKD
# Experimental: Cultures were started from freezer stocks by standard practice (Sambrook and Russell, 2001) into 50 mL of LB media plus 100 μg/mL ampicillin and grown to stationary phase overnight at 37° C. with rotation at 225 rpm. Five ml of this culture were transferred to 100 ml of fed-batch or AM2 media plus 40 g/L glucose, 100 kg/ml ampicillin, 1 mM IPTG in triplicate 250-ml baffled flasks, and incubated at 37° C., 225 rpm. […] Dry cell weight (DCW) is calculated as 0.33 times the measured OD600 value, based on baseline DCW to OD600 determinations. All data are the average of triplicate cultures.
smiles,measurement,setting,value
C/C=C/C/C=C/CCC(=O)[C@H]1O[C@H]1C(N)=O [cerulenin],increase in specific productivity relative to the results without cerulenin,"[1]; BX3_0206, SM3 medium, 24 hours",approximately 40 fold
same,3HP,"[1]; strain BX3_0194, SM3 medium, cerulenin, 4 hr",0.003 gIL
same,increase in specific productivity relative to the results without cerulenin,[2],31 fold
